{
  "source": "paper PMC10893103",
  "about": "“Cyclodextrin-Enabled Enantioselective Complexation Study of Cathinone Analogs” (Molecules, 2024)",
  "data": [
    {"assay": "Affinity capillary electrophoresis (ACE), pH 7.4", "details": "30 mM phosphate buffer pH 7.4, 25 °C, 15 kV", "text": "To assess the CD complex formation capability of the five cathinone derivatives, we devised a screening ACE method tailored to closely mimic physiological conditions. In a preliminary study, the ACE conditions were optimized regarding the type, pH, and concentration of the background electrolyte, the applied voltage, and the injection parameters. […] In order to avoid high Joule heat generation, sufficiently low voltage should be used; thus, after registering the Ohm plot (I-U plot), it was set to 15 kV. Throughout our ACE measurements, corrections for viscosity and ionic strength were systematically implemented to ensure precise determination of complex stability constants.\nThe CE experiments were performed on a HP ^3DCE and on an Agilent 7100 instrument (Agilent Technologies, Waldbronn, Germany) equipped with a photodiode array detector and the Chemstation software for data handling. Untreated fused silica capillaries (50 µm id, 48.5 cm total, 40 cm effective length) were purchased from Agilent. Conditioning of new capillary was conducted by flushing with 1 M NaOH followed by 0.1 M NaOH and water for 30 min each. Prior to all runs, the capillary was preconditioned by rinsing with BGE (2 min). The temperature of the capillary was set to 25 °C. UV detection was performed at 215 nm, and 15–25 kV voltage was applied. Samples were injected hydrodynamically (150 mbar·sec, optimized in the 50–500 mbar·sec range). The CE-pH measurements were carried out applying 25 kV voltage and 200 mbar·sec injection.\nThe background electrolyte of the CE-pH measurements contained 25 mM Na2HPO4 and 25 mM Na2B4O7, and the appropriate pH was adjusted with hydrochloric acid. During the ACE measurements, 30 mM phosphate buffer pH 7.4 (30 mM Na2HPO4—NaOH) was used. The running buffer was 20 mM acetic acid adjusting with 1 M Tris the pH to 4.5 during the chiral screening experiments. The BGEs contained CDs at various concentrations (0.25–20 mM) in the ACE experiments and 1-5-10 mM in the chiral method optimization experiments.\nStock solutions of each cathinone analog (mephedrone, flephedrone, 4-MEC, butylone, and MDPV) were prepared separately in methanol (1 mg/ml), and appropriate dilutions with water were used to prepare sample solutions for the CE-pH titration and for the ACE studies applying DMSO as EOF marker, while their mixture was used during the chiral separation studies.\nThe simplest way to determine the mobility is from the migration times (tmax) read from the electropherograms from which the apparent mobility could be calculated, but more accurate mobility values could be obtained by the determination with the Haarhoff–van der Linde (HVL) function based on Equation (2). (2) HVLδ(t;a0,a1,a2,a3δ)=a0/a2a3δ2πexp[−1/2(t−a1/a2)^2]/1/exp(a3δ)−1+1/2[1+erf(t−a1/2a2)] where a0 is the area of the HVL function, a1 is the position of the Gaussian component, a2 is the standard deviation of the Gaussian component, and a3δ is the peak shape distortion. The application of the HVL function is necessary in the case of accurate ACE measurements because, in several cases, the peaks are distorted due to the complex formation, which makes reading the migration times and calculating the mobility more difficult and imprecise.\nThe most popular technique for quantifying the analyte–ligand interaction with CE is mobility shift ACE.", "units": {"4-MEC–CD complex stability constant, Kstab/Kstab1 (unresolved or first migrating enantiomer)": "M⁻¹", "Flephedrone–CD complex stability constant, Kstab/Kstab1 (unresolved or first migrating enantiomer)": "M⁻¹", "Mephedrone–CD complex stability constant, Kstab/Kstab1 (unresolved or first migrating enantiomer)": "M⁻¹", "4-MEC–CD complex stability constant, Kstab2 (second migrating enantiomer)": "M⁻¹", "Mephedrone–CD complex stability constant, Kstab2 (second migrating enantiomer)": "M⁻¹", "Flephedrone–CD complex stability constant, Kstab2 (second migrating enantiomer)": "M⁻¹"}, "values": [
      {"compound": "hydroxypropylated-β-CD [HP-β-CD]", "4-MEC–CD complex stability constant, Kstab/Kstab1 (unresolved or first migrating enantiomer)": "80 ± 5", "Butylone–CD complex stability constant, Kstab/Kstab1 (unresolved or first migrating enantiomer)": "170 ± 10 M⁻¹", "Flephedrone–CD complex stability constant, Kstab/Kstab1 (unresolved or first migrating enantiomer)": "15 ± 3", "MDPV–CD complex stability constant, Kstab/Kstab1 (unresolved or first migrating enantiomer)": "255 ± 10 M⁻¹", "Mephedrone–CD complex stability constant, Kstab/Kstab1 (unresolved or first migrating enantiomer)": "60 ± 4"},
      {"compound": "sulfobutyl-ether-α-CD [SBE-α-CD]", "4-MEC–CD complex stability constant, Kstab2 (second migrating enantiomer)": "610 ± 55", "4-MEC–CD complex stability constant, Kstab/Kstab1 (unresolved or first migrating enantiomer)": "450 ± 45", "Butylone–CD complex stability constant, Kstab2 (second migrating enantiomer)": "530 ± 100 M⁻¹", "Butylone–CD complex stability constant, Kstab/Kstab1 (unresolved or first migrating enantiomer)": "220 ± 20 M⁻¹", "MDPV–CD complex stability constant, Kstab2 (second migrating enantiomer)": "550 ± 90 M⁻¹", "MDPV–CD complex stability constant, Kstab/Kstab1 (unresolved or first migrating enantiomer)": "580 ± 80 M⁻¹", "Mephedrone–CD complex stability constant, Kstab2 (second migrating enantiomer)": "565 ± 80", "Mephedrone–CD complex stability constant, Kstab/Kstab1 (unresolved or first migrating enantiomer)": "430 ± 70"},
      {"compound": "CO[C@@H]1[C@@H](OC)[C@H]2O[C@H]3[C@H](OC)[C@@H](OC)[C@@H](O[C@H]4[C@H](OC)[C@@H](OC)[C@@H](O[C@H]5[C@H](OC)[C@@H](OC)[C@@H](O[C@H]6[C@H](OC)[C@@H](OC)[C@@H](O[C@H]7[C@H](OC)[C@@H](OC)[C@@H](O[C@@H]1[C@@H](COS(=O)(=O)O)O2)O[C@@H]7COS(=O)(=O)O)O[C@@H]6COS(=O)(=O)O)O[C@@H]5COS(=O)(=O)O)O[C@@H]4COS(=O)(=O)O)O[C@@H]3COS(=O)(=O)O", "note": "[HxDMS-α-CD, hexakis-(2,3-O-dimethyl, 6-O-sulfo)-α-CD]", "4-MEC–CD complex stability constant, Kstab/Kstab1 (unresolved or first migrating enantiomer)": "55 ± 15", "Butylone–CD complex stability constant, Kstab/Kstab1 (unresolved or first migrating enantiomer)": "550 ± 95 M⁻¹", "Flephedrone–CD complex stability constant, Kstab/Kstab1 (unresolved or first migrating enantiomer)": "105 ± 12", "MDPV–CD complex stability constant, Kstab/Kstab1 (unresolved or first migrating enantiomer)": "220 ± 30 M⁻¹", "Mephedrone–CD complex stability constant, Kstab/Kstab1 (unresolved or first migrating enantiomer)": "270 ± 110"},
      {"compound": "carboxyethylated-β-CD [CE-β-CD]", "4-MEC–CD complex stability constant, Kstab/Kstab1 (unresolved or first migrating enantiomer)": "590 ± 40", "Butylone–CD complex stability constant, Kstab/Kstab1 (unresolved or first migrating enantiomer)": "975 ± 95 M⁻¹", "Flephedrone–CD complex stability constant, Kstab/Kstab1 (unresolved or first migrating enantiomer)": "150 ± 10", "Mephedrone–CD complex stability constant, Kstab2 (second migrating enantiomer)": "430 ± 25", "Mephedrone–CD complex stability constant, Kstab/Kstab1 (unresolved or first migrating enantiomer)": "400 ± 30"},
      {"compound": "sulfopropylated-β-CD [SP-β-CD (DS~2)]", "4-MEC–CD complex stability constant, Kstab/Kstab1 (unresolved or first migrating enantiomer)": "440 ± 25", "Butylone–CD complex stability constant, Kstab/Kstab1 (unresolved or first migrating enantiomer)": "710 ± 45 M⁻¹", "Flephedrone–CD complex stability constant, Kstab/Kstab1 (unresolved or first migrating enantiomer)": "140 ± 12", "Mephedrone–CD complex stability constant, Kstab/Kstab1 (unresolved or first migrating enantiomer)": "390 ± 20"},
      {"compound": "OC[C@H]1O[C@@H]2O[C@H]3[C@H](O)[C@@H](O)[C@@H](O[C@H]4[C@H](O)[C@@H](O)[C@@H](O[C@H]5[C@H](O)[C@@H](O)[C@@H](O[C@H]6[C@H](O)[C@@H](O)[C@@H](O[C@H]7[C@H](O)[C@@H](O)[C@@H](O[C@H]1[C@H](O)[C@H]2O)O[C@@H]7CO)O[C@@H]6CO)O[C@@H]5CO)O[C@@H]4CO)O[C@@H]3CO", "note": "[α-CD]", "4-MEC–CD complex stability constant, Kstab/Kstab1 (unresolved or first migrating enantiomer)": "30 ± 5", "Butylone–CD complex stability constant, Kstab/Kstab1 (unresolved or first migrating enantiomer)": "40 ± 5 M⁻¹", "Flephedrone–CD complex stability constant, Kstab/Kstab1 (unresolved or first migrating enantiomer)": "40 ± 4", "MDPV–CD complex stability constant, Kstab2 (second migrating enantiomer)": "50 ± 5 M⁻¹", "MDPV–CD complex stability constant, Kstab/Kstab1 (unresolved or first migrating enantiomer)": "40 ± 6 M⁻¹", "Mephedrone–CD complex stability constant, Kstab/Kstab1 (unresolved or first migrating enantiomer)": "30 ± 4"},
      {"compound": "phosphated-β-CD [Phos-β-CD]", "Flephedrone–CD complex stability constant, Kstab2 (second migrating enantiomer)": "440 ± 35", "Flephedrone–CD complex stability constant, Kstab/Kstab1 (unresolved or first migrating enantiomer)": "330 ± 20", "MDPV–CD complex stability constant, Kstab/Kstab1 (unresolved or first migrating enantiomer)": "870 ± 60 M⁻¹"},
      {"compound": "sulfobutyl-ether-β-CD [SBE-β-CD (DS~4)]", "4-MEC–CD complex stability constant, Kstab2 (second migrating enantiomer)": "550 ± 40", "4-MEC–CD complex stability constant, Kstab/Kstab1 (unresolved or first migrating enantiomer)": "560 ± 60", "Flephedrone–CD complex stability constant, Kstab/Kstab1 (unresolved or first migrating enantiomer)": "175 ± 25", "Mephedrone–CD complex stability constant, Kstab2 (second migrating enantiomer)": "325 ± 60", "Mephedrone–CD complex stability constant, Kstab/Kstab1 (unresolved or first migrating enantiomer)": "300 ± 60"},
      {"compound": "randomly methylated-β-CD [RAME-β-CD]", "4-MEC–CD complex stability constant, Kstab/Kstab1 (unresolved or first migrating enantiomer)": "140 ± 7", "Butylone–CD complex stability constant, Kstab2 (second migrating enantiomer)": "350 ± 15 M⁻¹", "Butylone–CD complex stability constant, Kstab/Kstab1 (unresolved or first migrating enantiomer)": "325 ± 15 M⁻¹", "Flephedrone–CD complex stability constant, Kstab/Kstab1 (unresolved or first migrating enantiomer)": "40 ± 5", "MDPV–CD complex stability constant, Kstab/Kstab1 (unresolved or first migrating enantiomer)": "585 ± 35 M⁻¹", "Mephedrone–CD complex stability constant, Kstab/Kstab1 (unresolved or first migrating enantiomer)": "100 ± 5"},
      {"compound": "succinyl-β-CD [Succ-β-CD (DS~4)]", "Butylone–CD complex stability constant, Kstab2 (second migrating enantiomer)": "30,500 ± 5300 M^−1", "Butylone–CD complex stability constant, Kstab/Kstab1 (unresolved or first migrating enantiomer)": "13,500 ± 1350 M^−1", "MDPV–CD complex stability constant, Kstab2 (second migrating enantiomer)": "10,600 ± 35 M^−1", "MDPV–CD complex stability constant, Kstab/Kstab1 (unresolved or first migrating enantiomer)": "12,100 ± 2150 M^−1"},
      {"compound": "CO[C@@H]1[C@@H](OC)[C@H]2O[C@H]3[C@H](OC)[C@@H](OC)[C@@H](O[C@H]4[C@H](OC)[C@@H](OC)[C@@H](O[C@H]5[C@H](OC)[C@@H](OC)[C@@H](O[C@H]6[C@H](OC)[C@@H](OC)[C@@H](O[C@H]7[C@H](OC)[C@@H](OC)[C@@H](O[C@H]8[C@H](OC)[C@@H](OC)[C@@H](O[C@H]9[C@H](OC)[C@@H](OC)[C@@H](O[C@@H]1[C@@H](COS(=O)(=O)O)O2)O[C@@H]9COS(=O)(=O)O)O[C@@H]8COS(=O)(=O)O)O[C@@H]7COS(=O)(=O)O)O[C@@H]6COS(=O)(=O)O)O[C@@H]5COS(=O)(=O)O)O[C@@H]4COS(=O)(=O)O)O[C@@H]3COS(=O)(=O)O", "note": "[ODMS-γ-CD, octakis-(2,3-O-dimethyl, 6-O-sulfo)-γ-CD]", "4-MEC–CD complex stability constant, Kstab2 (second migrating enantiomer)": "125 ± 20", "4-MEC–CD complex stability constant, Kstab/Kstab1 (unresolved or first migrating enantiomer)": "110 ± 15", "Butylone–CD complex stability constant, Kstab2 (second migrating enantiomer)": "165 ± 25 M⁻¹", "Butylone–CD complex stability constant, Kstab/Kstab1 (unresolved or first migrating enantiomer)": "145 ± 15 M⁻¹", "Flephedrone–CD complex stability constant, Kstab2 (second migrating enantiomer)": "70 ± 10", "Flephedrone–CD complex stability constant, Kstab/Kstab1 (unresolved or first migrating enantiomer)": "90 ± 20", "MDPV–CD complex stability constant, Kstab2 (second migrating enantiomer)": "110 ± 45 M⁻¹", "MDPV–CD complex stability constant, Kstab/Kstab1 (unresolved or first migrating enantiomer)": "105 ± 7 M⁻¹", "Mephedrone–CD complex stability constant, Kstab2 (second migrating enantiomer)": "140 ± 20", "Mephedrone–CD complex stability constant, Kstab/Kstab1 (unresolved or first migrating enantiomer)": "200 ± 35"},
      {"compound": "sulfated-β-CD [S-β-CD]", "Flephedrone–CD complex stability constant, Kstab/Kstab1 (unresolved or first migrating enantiomer)": "860 ± 100"}
    ]}
  ]
}
